Publication PMC5748433, “Study on the effect of EMD386088, a 5-HT6 receptor partial agonist, in enhancing the anti-immobility action of some antidepressants in rats” (Naunyn-Schmiedeberg's Archives of Pharmacology, 2017)
Read-outs that look alike come from different tables or passages of the source.

Experiments:
dopamine D2 = system: dopamine D2; design: method as in Jastrzębska-Więsek et al. [2013]; details: ref Jastrzębska-Więsek et al. [2013]; cited from earlier work
[1] = Distribution of EMD386088 in rats' brain (LC/MS/MS, non-compartmental); format: in vivo, rat
Protocol: (§1) Blood samples were collected at 0 min (predose), 5 min, 15 min, 30 min, 60 min, 120 min, and 240 min after injections. The blood was collected from right ventricle under anesthesia using a mixture of ketamine (50 mg/kg)/xylasine (8 mg/kg) in the ratio of 3:1, and 0.025 mL of a mixture for 10 g body weight was injected i.p. 10 min before planned blood collection. Blood and brain samples were collected under general anesthesia induced by i.p. injections of ketamine (50 mg/kg)/xylasine (8 mg/kg). The blood samples were taken into heparinized tubes, immediately centrifuged at 3500 rpm for 10 min, and plasma was collected. After the blood was drawn, the rat’s spinal cord was cut and the cerebral tissue was removed, and after dissection washed in PBS saline. The brain and plasma samples were immediately frozen at − 80 °C for LC/MS/MS analysis.
(§2) Pharmacokinetic parameters were calculated by a non-compartmental approach from the average concentration values, using Phoenix WinNonlin software (Certara, Princeton, NJ 08540 USA). First order elimination rate constant (λz) was calculated by linear regression of time versus log concentration.
(§3) The quantification of studied compounds in plasma and brain samples was done using HPLC Agilent 1100 system (Agilent Technologies, Waldbronn, Germany) coupled to the triple quadrupole mass spectrometer API 2000 (ABSciex, Framingham, Massachusetts, USA) equipped with an electrospray ion source. After preparation, the samples were injected (20 μL) onto XBridge C18 (2.1 mm × 30 mm, 3.5 μm, Waters, Milford, Massachusetts, USA) analytical column. The mobile phase consisted of ACN with 0.1% formic acid (A) and water with 0.1% formic acid (B) were delivered in gradient elution started with 90% of eluent B, increasing during 2 min to 90% of eluent A, maintained to 3 min, and then returned during 5 min to 90% of eluent B, and maintained 90% of eluent B during 5 min at a flow rate of 300 μL/min. The total time of analysis was 15 min. Electrospray ionization process was performed in positive ionization and the data acquisition was carried out in multiple reaction monitoring mode (MRM) for EMD386088 and its internal standard (nebivolol). The ion spray source settings were as follows: spray voltage: 5 kV, heater temperature: 350 °C, curtain gas: 15 psi, source gas 1: 35 psi, source gas 2: 10 psi. The ions measured were m/z 247.3 (Q1) and m/z 168.2 (Q3) for EMD386088, and m/z 406.2 (Q1) and m/z 151.1 (Q3) for IS.
(§4) A sample volume of 50 μL of plasma or brain homogenate was transferred into the clean Eppendorf tube and spiked with 5 μL of IS solution (1 μg/mL) obtaining the final concentration of 100 ng/mL. After 5 min of mixing (1500 rpm), proteins were precipitated using 150 μL ACN. After 10 min of samples shaking (1500 rpm), the incubation step was performed (10 min, 4 °C). Next, samples were centrifuged (10,000 rpm, 10 min, 4 °C) and the supernatant was transferred into chromatographic vial for LC/MS/MS analysis. The brain homogenate was prepared maintaining the tissue: phosphate-buffered saline (PBS) at a ratio of 1:5. The homogenization was carried out employing IKA® T10 Basic ULTRA-TURRAX disperser (IKA Werke GmbH & Co. KG, Staufen, Germany). After homogenization, 50 μL of sample was collected for further preparation. All samples were stored on ice during the preparation process.

[2] = Pharmacokinetic study in rats, plasma (LC/MS/MS, non-compartmental); format: in vivo, rat; details: for Vd/F / AUC(0-t) / CL/F / Cmax / MRT / half-life / Tmax: rat, plasma
Protocol: as §1, §2, §3, §4

recombinant human CYP2D6 = molecular target: T1, recombinant human CYP2D6 (Homo sapiens, UniProt P10635); assay: Luminescent CYP2D6 P450-Glo assay; format: in vitro ADME; details: read-out: IC 50 CYP2D6
T1 construct: purchased Promega (Madison, WI, USA)
T1 sequence (P10635 whole entry): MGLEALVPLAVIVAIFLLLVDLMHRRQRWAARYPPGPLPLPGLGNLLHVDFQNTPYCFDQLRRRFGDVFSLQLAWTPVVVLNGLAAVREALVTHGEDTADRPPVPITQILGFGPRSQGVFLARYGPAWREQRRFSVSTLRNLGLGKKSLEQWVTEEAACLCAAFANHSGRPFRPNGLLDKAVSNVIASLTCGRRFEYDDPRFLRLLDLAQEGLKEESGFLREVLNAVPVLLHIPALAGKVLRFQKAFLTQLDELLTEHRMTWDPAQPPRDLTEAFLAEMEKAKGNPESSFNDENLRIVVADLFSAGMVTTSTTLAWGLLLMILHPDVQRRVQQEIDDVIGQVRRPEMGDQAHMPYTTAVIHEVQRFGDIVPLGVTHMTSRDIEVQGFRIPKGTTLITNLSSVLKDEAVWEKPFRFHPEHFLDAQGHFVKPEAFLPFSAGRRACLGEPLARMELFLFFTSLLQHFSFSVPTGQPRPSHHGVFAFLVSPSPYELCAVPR
Protocol: The enzymatic reactions were performed in white polystyrene, flat-bottom Nunc™ MicroWell™ 96-Well Microplates (Thermo Scientific, Waltham, MA USA). The luminescence signal was measured with a microplate reader in luminescence mode (EnSpire, PerkinElmer, Waltham, MA USA).

[3] = rat brain, EMD386088 2.5 mg/kg i.p. jointly with imipramine (IMI) 15 mg/kg i.p.
[4] = rat, brain, ip, 2.5 mg/kg, rat brain, EMD386088 2.5 mg/kg i.p. alone
[5] = rat, brain, ip, 2.5 mg/kg, rat brain, EMD386088 2.5 mg/kg i.p. jointly with imipramine (IMI) 15 mg/kg i.p.
[6] = rat, brain, ip, 5 mg/kg, rat brain, EMD386088 5 mg/kg i.p. alone
[7] = rats, EMD386088 with imipramine vs alone
[8] = ip, 2.5 mg/kg, rat plasma, EMD386088 2.5 mg/kg i.p. alone
[9] = ip, 2.5 mg/kg, rat plasma, EMD386088 2.5 mg/kg i.p. jointly with imipramine (IMI) 15 mg/kg i.p.
[10] = ip, 5 mg/kg, rat plasma, EMD386088 5 mg/kg i.p. alone

Cc1[nH]c2ccc(Cl)cc2c1C1=CCNCC1.Cl [EMD386088, 5-chloro-2-methyl-3-(1,2,3,6-tetrahydro-4-pyridinyl)-1H-indole hydrochloride]
affinity for dopamine D2 (dopamine D2): no affinity | Tmax ([1]; ip, rat brain, EMD386088 2.5 mg/kg i.p. alone, read-out: t max (converted)): 2 h | Tmax ([1]; ip, rat brain, EMD386088 5 mg/kg i.p. alone, read-out: t max (converted)): 2 h | AUC0 → t ([1]; rat brain, EMD386088 2.5 mg/kg i.p. alone): 41,936.2 ng ⋅ min/g | AUC0 → t [1, 3]: 56,428.6 ng ⋅ min/g | Tmax [1, 3]: 2 h | AUC0 → t ([1]; rat brain, EMD386088 5 mg/kg i.p. alone): 84,462.8 ng ⋅ min/g | Cmax [1, 4]: 321 ng/g | MRT [1, 4]: 1.9 h | Cmax [1, 5]: 277 ng/g | MRT [1, 5]: 2.12 h | Cmax [1, 6]: 640 ng/g | MRT [1, 6]: 1.91 h | Kp ([1]; rat, brain, ip, rats, EMD386088 2.5 mg/kg i.p. alone, calculated on the basis of AUC0 → t values, read-out: brain/plasma ratio): ~19 | Tmax ([1]; rat, brain, ip, rats, after i.p. administration, read-out: t max in the brain (converted)): 2 h | decrease in penetration on coadministration with imipramine [1, 7]: 2.5 fold | Vd/F ([2]; intraperitoneal, rats, EMD386088 2.5 mg/kg coadministered with imipramine 15 mg/kg, read-out: volume of distribution V d/F): 32.2 L/kg | AUC(0-t) [2, 8]: 36.8 ng·h/mL | CL/F [2, 8]: 1050 mL/min/kg | Cmax [2, 8]: 22.9 ng/mL | MRT [2, 8]: 1.31 h | Vd/F ([2]; ip, 2.5 mg/kg, rat plasma, EMD386088 2.5 mg/kg i.p. alone, read-out: V d/F): 102 L/kg | half-life ([2]; ip, 2.5 mg/kg, rat plasma, EMD386088 2.5 mg/kg i.p. alone, read-out: t1/2): 1.12 h | Tmax ([2]; ip, 2.5 mg/kg, rat plasma, EMD386088 2.5 mg/kg i.p. alone, read-out: t max (converted)): 0.0833 h | AUC(0-t) [2, 9]: 125 ng·h/mL | CL/F [2, 9]: 289 mL/min/kg | Cmax [2, 9]: 49 ng/mL | MRT [2, 9]: 1.55 h | Vd/F ([2]; ip, 2.5 mg/kg, rat plasma, EMD386088 2.5 mg/kg i.p. jointly with imipramine (IMI) 15 mg/kg i.p., read-out: V d/F): 32.2 L/kg | half-life ([2]; ip, 2.5 mg/kg, rat plasma, EMD386088 2.5 mg/kg i.p. jointly with imipramine (IMI) 15 mg/kg i.p., read-out: t1/2): 1.28 h | Tmax ([2]; ip, 2.5 mg/kg, rat plasma, EMD386088 2.5 mg/kg i.p. jointly with imipramine (IMI) 15 mg/kg i.p., read-out: t max (converted)): 1 h | AUC(0-t) [2, 10]: 75.5 ng·h/mL | CL/F [2, 10]: 1040 mL/min/kg | Cmax [2, 10]: 45.2 ng/mL | MRT [2, 10]: 1.3 h | Vd/F ([2]; ip, 5 mg/kg, rat plasma, EMD386088 5 mg/kg i.p. alone, read-out: V d/F): 97.1 L/kg | half-life ([2]; ip, 5 mg/kg, rat plasma, EMD386088 5 mg/kg i.p. alone, read-out: t1/2): 1.08 h | Tmax ([2]; ip, 5 mg/kg, rat plasma, EMD386088 5 mg/kg i.p. alone, read-out: t max (converted)): 0.0833 h | half-life ([2]; ip, 5 mg/kg, rats, EMD386088 alone (2.5 and 5 mg/kg) i.p., read-out: t 1/2 (terminal half-life)): 1.12 h | Tmax ([2]; ip, 5 mg/kg, rats, EMD386088 alone (2.5 and 5 mg/kg) i.p., read-out: t max (time to maximum concentration in the blood) (converted)): 0.0833 h | Vd/F ([2]; ip, rats, EMD386088 alone i.p., read-out: volume of distribution V d/F): 102 L/kg | change of area under the concentration-time curve (AUC) on coadministration with imipramine [2, 7]: increased three times | change of volume of distribution on coadministration with imipramine [2, 7]: decreased three times | IC50 (recombinant human CYP2D6): 2250 nM
